According to ChEMBL document CHEMBL1133617, “Effect of C9-methyl substitution and C8-C9 conformational restriction on antifolate and antitumor activity of classical 5-substituted 2,4-diaminofuro[2,3-d]pyrimidines” (J Med Chem, 2000):

T1: Dihydrofolate reductase (Escherichia coli, UniProt P0ABQ4)
T1 sequence (P0ABQ4 whole entry): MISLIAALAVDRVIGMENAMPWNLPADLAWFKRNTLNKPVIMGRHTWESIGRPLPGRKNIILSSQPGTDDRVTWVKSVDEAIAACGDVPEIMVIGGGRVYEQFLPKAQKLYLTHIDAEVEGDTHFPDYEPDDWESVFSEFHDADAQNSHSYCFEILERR

T2: Bifunctional dihydrofolate reductase-thymidylate synthase (Toxoplasma gondii, UniProt Q07422)
T2 sequence (Q07422 whole entry): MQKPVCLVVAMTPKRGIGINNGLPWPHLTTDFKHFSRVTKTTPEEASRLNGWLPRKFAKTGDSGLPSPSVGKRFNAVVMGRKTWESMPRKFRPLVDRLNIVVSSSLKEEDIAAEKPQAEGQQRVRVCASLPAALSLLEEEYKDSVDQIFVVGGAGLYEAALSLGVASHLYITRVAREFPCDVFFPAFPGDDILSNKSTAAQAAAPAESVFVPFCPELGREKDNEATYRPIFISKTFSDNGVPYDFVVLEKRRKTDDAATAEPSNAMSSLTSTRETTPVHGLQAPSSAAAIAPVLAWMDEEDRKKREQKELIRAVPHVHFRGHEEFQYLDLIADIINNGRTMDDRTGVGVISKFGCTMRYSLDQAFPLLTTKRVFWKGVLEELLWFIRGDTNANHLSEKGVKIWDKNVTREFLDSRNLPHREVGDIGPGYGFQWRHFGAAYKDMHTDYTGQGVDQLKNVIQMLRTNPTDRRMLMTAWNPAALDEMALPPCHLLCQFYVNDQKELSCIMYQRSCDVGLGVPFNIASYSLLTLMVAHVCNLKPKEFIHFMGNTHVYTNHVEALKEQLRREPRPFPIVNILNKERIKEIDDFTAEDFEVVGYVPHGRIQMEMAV

T3: Thymidylate synthase (Lactobacillus casei, UniProt P00469)
T3 sequence (P00469 whole entry): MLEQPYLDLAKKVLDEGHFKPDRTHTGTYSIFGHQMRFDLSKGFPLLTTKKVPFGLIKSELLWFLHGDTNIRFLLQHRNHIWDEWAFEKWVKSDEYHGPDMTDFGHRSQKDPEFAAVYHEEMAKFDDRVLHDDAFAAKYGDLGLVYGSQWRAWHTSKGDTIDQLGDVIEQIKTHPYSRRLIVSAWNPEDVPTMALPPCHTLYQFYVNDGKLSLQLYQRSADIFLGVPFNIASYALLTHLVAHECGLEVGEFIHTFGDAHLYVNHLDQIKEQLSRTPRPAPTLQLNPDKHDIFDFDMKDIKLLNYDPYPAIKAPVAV

T4: Dihydrofolate reductase (Homo sapiens, UniProt P00374)
T4 sequence (P00374 whole entry): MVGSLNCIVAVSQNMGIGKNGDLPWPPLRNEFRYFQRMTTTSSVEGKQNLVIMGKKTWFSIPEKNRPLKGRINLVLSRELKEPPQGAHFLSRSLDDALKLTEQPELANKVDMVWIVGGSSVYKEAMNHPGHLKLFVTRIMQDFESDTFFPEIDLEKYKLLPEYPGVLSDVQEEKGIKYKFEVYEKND

B1: Folylpolyglutamate synthase, mitochondrial (Homo sapiens), Q05932 (protein)
chain: MSRARSHLRAALFLAAASARGITTQVAARRGLSAWPVPQEPSMEYQDAVRMLNTLQTNAGYLEQVKRQRGDPQTQLEAMELYLARSGLQVEDLDRLNIIHVTGTKGKGSTCAFTECILRSYGLKTGFFSSPHLVQVRERIRINGQPISPELFTKYFWRLYHRLEETKDGSCVSMPPYFRFLTLMAFHVFLQEKVDLAVVEVGIGGAYDCTNIIRKPVVCGVSSLGIDHTSLLGDTVEKIAWQKGGIFKQGVPAFTVLQPEGPLAVLRDRAQQISCPLYLCPMLEALEEGGPPLTLGLEGEHQRSNAALALQLAHCWLQRQDRHGAGEPKASRPGLLWQLPLAPVFQPTSHMRLGLRNTEWPGRTQVLRRGPLTWYLDGAHTASSAQACVRWFRQALQGRERPSGGPEVRVLLFNATGDRDPAALLKLLQPCQFDYAVFCPNLTEVSSTGNADQQNFTVTLDQVLLRCLEHQQHWNHLDEEQASPDLWSAPSPEPGGSASLLLAPHPPHTCSASSLVFSCISHALQWISQGRDPIFQPPSPPKGLLTHPVAHSGASILREAAAIHVLVTGSLHLVGGVLKLLEPALSQ

How the values were obtained:
Dihydrofolate reductase [1] = biological target: T1, Dihydrofolate reductase
Description: Inhibitory concentration against Escherichia coli Dihydrofolate reductase

Dihydrofolate reductase [2] = biological target: Dihydrofolate reductase (Lactobacillus casei, UniProt P00381); experiment: Inhibitory concentration against Lactobacillus casei Dihydrofolate reductase; design: species or system Lacticaseibacillus casei
FaDu [3] = experiment: Growth inhibition of human squamous cell carcinoma FaDu cells during continuous Exposure ([…]); type: functional, cell-based
Thymidylate synthase [4] = biological target: Thymidylate synthase (Rattus norvegicus, UniProt P45352); experiment: Inhibitory concentration against rat Thymidylate synthase (TS)
A253 cell line = experiment: Growth inhibition of human squamous cell carcinoma A253 cells during continuous Exposure ([…]); type: functional, cell-based
[5] = Growth inhibition of MTX-resistant R1 sublines.; type: functional, Homo sapiens
Thymidylate synthase [6] = biological target: Thymidylate synthase (Escherichia coli, UniProt C3SWJ7); experiment: Inhibitory concentration against Escherichia coli Thymidylate synthase (TS).
[7] = biological target: T2, Bifunctional dihydrofolate reductase-thymidylate synthase; experiment: Inhibitory concentration against Toxoplasma gondii Dihydrofolate reductase
[8] = Growth inhibition of MTX-resistant R30dm sublines.; type: functional, Homo sapiens
[9] = ratio of vmax to Km
CCRF-CEM = experiment: Growth inhibition of CCRF-CEM human leukemia cells.; type: functional, cell-based
Thymidylate synthase [10] = biological target: T3, Thymidylate synthase; experiment: Inhibitory concentration against Lactobacillus casei Thymidylate synthase (TS).; design: species or system Lacticaseibacillus casei
Thymidylate synthase [11] = biological target: Thymidylate synthase (Homo sapiens, UniProt P04818); experiment: Inhibitory concentration against recombinant human (rh) Thymidylate synthase (TS)
Dihydrofolate reductase [12] = biological target: T4, Dihydrofolate reductase
Description: Inhibitory concentration against recombinant human (rh) Dihydrofolate reductase

[13] = Growth inhibition of MTX-resistant R2(Bos) sublines.; type: functional, Homo sapiens
FaDu [14] = experiment: protection of FaDu cells from the growth inhibitory effects of the compound.; type: functional, Homo sapiens; design: scale not given: the % may be the effect or the level left
FaDu [15] = experiment: protection of FaDu cells from the growth inhibitory effects by 40 uM of thymidine (TdR).; type: functional, Homo sapiens; design: scale not given: the % may be the effect or the level left
FaDu [16] = experiment: protection of FaDu cells from the growth inhibitory effects by 50 uM of hypoxanthine (HX); type: functional, Homo sapiens; design: scale not given: the % may be the effect or the level left
FaDu [17] = experiment: protection of FaDu cells from the growth inhibitory effects by combination of 50 uM of thymidine (TdR).; type: functional, Homo sapiens; design: scale not given: the % may be the effect or the level left
FaDu [18] = experiment: protection of FaDu cells from the growth inhibitory effects by the combination of 50 uM of hypoxanthine (HX) and 40 uM of thymidine (TdR).; type: functional, Homo sapiens; design: scale not given: the % may be the effect or the level left
Dihydrofolate reductase [19] = biological target: T4, Dihydrofolate reductase; experiment: Inhibitory activity against Dihydrofolate reductase
[20] = substrate: Nc1nc(N)c2nc(CNc3ccc(C(=O)N[C@@H](CCC(=O)O)C(=O)O)cc3)cnc2n1; experiment: (§1) Activity as substrate for recombinant human Folyl-polyglutamate synthase (rhFPGS) relative to aminopterin.
[21] = substrate: C/C(=C/c1coc2nc(N)nc(N)c12)c1ccc(C(=O)N[C@@H](CCC(=O)O)C(=O)O)cc1.C/C(=C\c1coc2nc(N)nc(N)c12)c1ccc(C(=O)N[C@@H](CCC(=O)O)C(=O)O)cc1; experiment: as §1
[22] = substrate: CC(Cc1coc2nc(N)nc(N)c12)c1ccc(C(=O)N[C@@H](CCC(=O)O)C(=O)O)cc1; experiment: as §1
[23] = substrate: Nc1nc(N)c2c(CCc3ccc(C(=O)N[C@@H](CCC(=O)O)C(=O)O)cc3)coc2n1; experiment: as §1
[24] = substrate: C/C(=C\c1coc2nc(N)nc(N)c12)c1ccc(C(=O)N[C@@H](CCC(=O)O)C(=O)O)cc1; experiment: as §1
[25] = substrate: Nc1nc(N)c2nc(CNc3ccc(C(=O)N[C@@H](CCC(=O)O)C(=O)O)cc3)cnc2n1; experiment: (§2) Activity as substrate for recombinant human Folyl-polyglutamate synthase (rhFPGS)
[26] = substrate: C/C(=C/c1coc2nc(N)nc(N)c12)c1ccc(C(=O)N[C@@H](CCC(=O)O)C(=O)O)cc1.C/C(=C\c1coc2nc(N)nc(N)c12)c1ccc(C(=O)N[C@@H](CCC(=O)O)C(=O)O)cc1; experiment: as §2
[27] = substrate: CC(Cc1coc2nc(N)nc(N)c12)c1ccc(C(=O)N[C@@H](CCC(=O)O)C(=O)O)cc1; experiment: as §2
[28] = substrate: C/C(=C\c1coc2nc(N)nc(N)c12)c1ccc(C(=O)N[C@@H](CCC(=O)O)C(=O)O)cc1; experiment: as §2

Chain of Thymidylate synthase (Homo sapiens, UniProt P04818) (P04818 whole entry): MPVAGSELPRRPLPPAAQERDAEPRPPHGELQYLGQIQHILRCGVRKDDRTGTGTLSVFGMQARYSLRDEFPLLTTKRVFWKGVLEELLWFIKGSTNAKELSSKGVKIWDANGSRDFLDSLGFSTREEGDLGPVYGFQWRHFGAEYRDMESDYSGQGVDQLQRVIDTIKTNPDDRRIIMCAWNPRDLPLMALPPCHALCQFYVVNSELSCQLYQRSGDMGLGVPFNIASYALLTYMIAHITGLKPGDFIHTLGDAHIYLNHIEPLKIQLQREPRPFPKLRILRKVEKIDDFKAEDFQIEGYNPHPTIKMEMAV
Chain of Thymidylate synthase (Escherichia coli, UniProt C3SWJ7) (C3SWJ7 whole entry): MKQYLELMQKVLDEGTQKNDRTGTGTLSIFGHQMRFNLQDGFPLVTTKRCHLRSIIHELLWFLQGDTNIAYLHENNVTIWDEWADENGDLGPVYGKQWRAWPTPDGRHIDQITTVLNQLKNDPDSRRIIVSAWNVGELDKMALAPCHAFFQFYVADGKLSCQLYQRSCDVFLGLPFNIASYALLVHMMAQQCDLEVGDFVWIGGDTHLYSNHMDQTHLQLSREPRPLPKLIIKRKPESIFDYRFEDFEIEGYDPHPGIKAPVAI
Chain of Thymidylate synthase (Rattus norvegicus, UniProt P45352) (P45352 whole entry): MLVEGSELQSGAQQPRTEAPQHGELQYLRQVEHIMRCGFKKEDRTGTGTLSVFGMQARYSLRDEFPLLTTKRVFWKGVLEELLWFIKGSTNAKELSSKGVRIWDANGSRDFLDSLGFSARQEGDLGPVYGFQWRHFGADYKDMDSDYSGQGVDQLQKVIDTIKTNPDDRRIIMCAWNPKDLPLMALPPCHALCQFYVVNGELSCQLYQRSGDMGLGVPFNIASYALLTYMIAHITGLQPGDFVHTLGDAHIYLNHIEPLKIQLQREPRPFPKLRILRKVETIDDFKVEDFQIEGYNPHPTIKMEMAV
Chain of Dihydrofolate reductase (Lactobacillus casei, UniProt P00381) (P00381 whole entry): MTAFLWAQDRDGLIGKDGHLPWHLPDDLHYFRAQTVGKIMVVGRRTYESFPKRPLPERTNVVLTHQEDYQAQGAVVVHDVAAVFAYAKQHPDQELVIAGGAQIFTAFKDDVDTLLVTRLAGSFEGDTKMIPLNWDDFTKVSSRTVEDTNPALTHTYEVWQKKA

Molecule | IC50 (Dihydrofolate reductase [1]) | IC50 (Dihydrofolate reductase [2]) | EC50 (FaDu [3]) | IC50 (Thymidylate synthase [4]) | EC50 (A253 cell line) | EC50 [5] | IC50 (Thymidylate synthase [6]) | IC50 [7] | EC50 [8] | Ratio [9] | EC50 (CCRF-CEM) | IC50 (Thymidylate synthase [10]) | IC50 (Thymidylate synthase [11]) | EC50 [13] | other results
C/C(=C/c1coc2nc(N)nc(N)c12)c1ccc(C(=O)N[C@@H](CCC(=O)O)C(=O)O)cc1.C/C(=C\c1coc2nc(N)nc(N)c12)c1ccc(C(=O)N[C@@H](CCC(=O)O)C(=O)O)cc1 (mixture of isomers) | 1100 nM | 4.4 µM | 1400 nM | > 360 µM | 700 nM | 32000 nM | > 360 µM | 4.4 µM | 6400 nM | 0.05 | 1180 nM | > 360 µM | > 360 µM | 17000 nM | IC50 (Dihydrofolate reductase [12]): 2.2 µM
CN(Cc1coc2nc(N)nc(N)c12)c1ccc(C(=O)N[C@@H](CCC(=O)O)C(=O)O)cc1 [FURO[2,3D]PYRIMIDINE ANTIFOLATE] | – | 0.22 µM | – | – | – | 807 nM | – | 19.8 µM | 1030 nM | – | – | > 200 µM | > 200 µM | – | –
CN(Cc1cnc2nc(N)nc(N)c2n1)c1ccc(C(=O)N[C@@H](CCC(=O)O)C(=O)O)cc1 [METHOTREXATE] | – | – | 11.3 nM | – | – | 675 nM | – | – | – | – | – | – | – | 1600 nM | Control (FaDu [14]): 5.75%; Control (FaDu [15]): 9.25%; Control (FaDu [16]): 11.25%; Control (FaDu [17]): 102%
C/C(=C\c1coc2nc(N)nc(N)c12)c1ccc(C(=O)N[C@@H](CCC(=O)O)C(=O)O)cc1 | 11000 nM | 84 µM | > 10000 nM | > 360 µM | > 10000 nM | – | > 360 µM | 110 µM | – | 0.15 | 34000 nM | > 360 µM | > 360 µM | – | IC50 (Dihydrofolate reductase [12]): 42 µM
CC(Cc1coc2nc(N)nc(N)c12)c1ccc(C(=O)N[C@@H](CCC(=O)O)C(=O)O)cc1 (some centres undefined) | 1100 nM | 2.1 µM | 17.5 nM | > 360 µM | 28.5 nM | 685 nM | 100 µM | 2.1 µM | 220 nM | – | 29.2 nM | > 360 µM | > 360 µM | 430 nM | Control (FaDu [14]): 5.75%; Control (FaDu [18]): 105.25%; Control (FaDu [15]): 8%; Control (FaDu [16]): 3.75%
Nc1nc(N)c2c(CCc3ccc(C(=O)N[C@@H](CCC(=O)O)C(=O)O)cc3)coc2n1 | – | – | – | – | – | – | – | – | 425 nM | 0.07 | – | – | – | – | –
Nc1nc(N)c2c(CNc3ccc(C(=O)N[C@@H](CCC(=O)O)C(=O)O)cc3)coc2n1 | – | – | – | – | – | 1520 nM | – | 0.7 µM | 663 nM | – | – | – | > 200 µM | – | –
Nc1nc(N)c2c(CNCc3ccc(C(=O)N[C@@H](CCC(=O)O)C(=O)O)cc3)coc2n1 | – | – | – | – | – | – | – | – | – | – | – | – | – | – | IC50 (Dihydrofolate reductase [19]): 10 µM
Nc1nc(N)c2nc(CNc3ccc(C(=O)N[C@@H](CCC(=O)O)C(=O)O)cc3)cnc2n1 | – | – | – | – | – | – | – | – | – | 0.23 | – | – | – | – | –
B1 | – | – | – | – | – | – | – | – | – | – | – | – | – | – | Vmax [20]: 1; Vmax [21]: 0.56; Vmax [22]: 0.52; Vmax [23]: 0.065; Vmax [24]: 0.76; Km [25]: 4.5 µM; Km [26]: 10.3 µM; Km [27]: 1.2 µM; Km [28]: 5.3 µM
